The structures appear in SMILES notation.

A short description of this test: Inhibition of Clostridium histolyticum collagenase using a linear regression program.

Usually Ki stands for the equilibrium dissociation constant of an inhibitor or competing ligand from its target. The low end stands for higher affinity, the high end for lower affinity. As to `CC(C(=O)O)N(Cc1ccc([N+](=O)[O-])cc1)S(=O)(=O)C(F)(F)C(F)(F)C(F)(F)C(F)(F)C(F)(F)C(F)(F)C(F)(F)C(F)(F)F` (configuration not stated) [2-[(Heptadecafluorooctane-1-sulfonyl)-(4-nitro-benzyl)-amino]-propionic acid], the affinity, expressed as Ki, was 1.8 µM. That is a single-digit micromolar value.
`CC(C(=O)NO)N(Cc1ccc([N+](=O)[O-])cc1)S(=O)(=O)N(C)C` (configuration not stated) [2-[[(dimethylamino)sulfonyl](4-nitrobenzyl)amino]-N-hydroxypropanamide] yielded a Ki of 69 µM.
Then `CC(C(=O)O)N(Cc1ccc([N+](=O)[O-])cc1)C(=O)Nc1ccc(F)cc1` (configuration not stated) [2-[3-(4-Fluoro-phenyl)-1-(4-nitro-benzyl)-ureido]-propionic acid], with 5.4 µM; and `CC(C(=O)NO)N(Cc1ccc([N+](=O)[O-])cc1)C(=O)Nc1ccc(F)cc1` (configuration not stated) [2-[3-(4-Fluoro-phenyl)-1-(4-nitro-benzyl)-ureido]-N-hydroxy-propionamide], with 12 µM; and `CC(C(=O)O)N(Cc1ccc([N+](=O)[O-])cc1)S(=O)(=O)c1ccc2ccccc2c1` (configuration not stated) [2-[(Naphthalene-2-sulfonyl)-(4-nitro-benzyl)-amino]-propionic acid], with 1.3 µM.
Compound `COc1ccc(S(=O)(=O)N(Cc2ccc([N+](=O)[O-])cc2)C(C)C(=O)O)cc1NC(=O)OC(C)(C)C` (configuration not stated) [2-[(3-tert-Butoxycarbonylamino-4-methoxy-benzenesulfonyl)-(4-nitro-benzyl)-amino]-propionic acid] returned an inhibitory constant (Ki) of 2.1 µM.
In turn, `CC(C(=O)NO)N(Cc1ccc([N+](=O)[O-])cc1)S(=O)(=O)c1ccc(F)cc1` (configuration not stated) [2-[(4-Fluoro-benzenesulfonyl)-(4-nitro-benzyl)-amino]-N-hydroxy-propionamide] displayed a Ki of 35 µM.
The compound `CC(C(=O)O)N(Cc1ccc([N+](=O)[O-])cc1)S(=O)(=O)c1cc(Cl)ccc1Cl` (configuration not stated) [2-[(2,5-Dichloro-benzenesulfonyl)-(4-nitro-benzyl)-amino]-propionic acid] had a Ki of 3.6 µM.
Regarding `CC(C(=O)NO)N(Cc1ccc([N+](=O)[O-])cc1)S(=O)(=O)c1ccc2ccccc2c1` (configuration not stated) [N-Hydroxy-2-[(naphthalene-2-sulfonyl)-(4-nitro-benzyl)-amino]-propionamide], the inhibition constant Ki is 8 µM.
As to `CC(C(=O)NO)N(Cc1ccc([N+](=O)[O-])cc1)S(=O)(=O)c1cccc(C(F)(F)F)c1` (configuration not stated) [N-Hydroxy-2-[(4-nitro-benzyl)-(3-trifluoromethyl-benzenesulfonyl)-amino]-propionamide], the affinity, expressed as Ki, was 6 µM.
Then `CC(C(=O)NO)N(Cc1ccc([N+](=O)[O-])cc1)S(=O)(=O)c1cccc2cccnc12` (configuration not stated) [N-Hydroxy-2-[(4-nitro-benzyl)-(quinoline-8-sulfonyl)-amino]-propionamide], with 8 µM; and `CC(C(=O)O)N(Cc1ccc([N+](=O)[O-])cc1)S(=O)(=O)c1cccc2ccccc12` (configuration not stated) [2-[(Naphthalene-1-sulfonyl)-(4-nitro-benzyl)-amino]-propionic acid], with 1.2 µM.
Take `CC(C(=O)NO)N(Cc1ccc([N+](=O)[O-])cc1)S(=O)(=O)C(F)(F)F` (configuration not stated) [N-Hydroxy-2-[(4-nitro-benzyl)-trifluoromethanesulfonyl-amino]-propionamide]: the inhibition constant (Ki) was 75 µM.
`CC(C(=O)NO)N(Cc1ccc([N+](=O)[O-])cc1)C(=O)Nc1ccc(Cl)c(Cl)c1` (configuration not stated) [2-[3-(3,4-Dichloro-phenyl)-1-(4-nitro-benzyl)-ureido]-N-hydroxy-propionamide] returned a Ki of 13 µM.
Regarding `CC(C(=O)O)N(Cc1ccc([N+](=O)[O-])cc1)Sc1ccc([N+](=O)[O-])cc1` (configuration not stated) [2-[(4-Nitro-benzyl)-(4-nitro-phenylsulfanyl)-amino]-propionic acid], the Ki is 5.5 µM.
Compound `CC(C(=O)NO)N(Cc1ccc([N+](=O)[O-])cc1)S(=O)(=O)c1ccc(Cl)cc1` (configuration not stated) [2-[(4-Chloro-benzenesulfonyl)-(4-nitro-benzyl)-amino]-N-hydroxy-propionamide] came in with an inhibitory constant (Ki) of 32 µM. This Ki is about 5.8-fold higher than that of the compound before.
Compound `COc1ccc(S(=O)(=O)N(Cc2ccc([N+](=O)[O-])cc2)C(C)C(=O)NO)cc1NC(=O)OC(C)(C)C` (configuration not stated) [{5-[(1-Hydroxycarbamoyl-ethyl)-(4-nitro-benzyl)-sulfamoyl]-2-methoxy-phenyl}-carbamic acid tert-butyl ester] returned a Ki of 8 µM.
Then `Cc1ccccc1S(=O)(=O)NC(=O)N(Cc1ccc([N+](=O)[O-])cc1)C(C)C(=O)O` (configuration not stated) [2-[({[(2-methylphenyl)sulfonyl]amino}carbonyl)(4-nitrobenzyl)amino]propanoic acid], with 3.1 µM.
The compound `CC(C(=O)NO)N(Cc1ccc([N+](=O)[O-])cc1)C(=O)NS(=O)(=O)c1ccc(F)cc1` (configuration not stated) [2-[({[(4-fluorophenyl)sulfonyl]amino}carbonyl)(4-nitrobenzyl)amino]-N-hydroxypropanamide] yielded an inhibition constant (Ki) of 9 µM.
The compound `CC(C(=O)O)N(Cc1ccc([N+](=O)[O-])cc1)C(=O)Nc1ccc(Cl)c(Cl)c1` (configuration not stated) [2-[3-(3,4-Dichloro-phenyl)-1-(4-nitro-benzyl)-ureido]-propionic acid] returned an inhibition constant (Ki) of 5 µM.
On to `CC(C(=O)NO)N(Cc1ccc([N+](=O)[O-])cc1)S(=O)(=O)c1ccc(Br)cc1` (configuration not stated) [2-[(4-Bromo-benzenesulfonyl)-(4-nitro-benzyl)-amino]-N-hydroxy-propionamide], for which the affinity, expressed as Ki, was 30 µM. This Ki lies about 6-fold higher than the previous one.
Then `CC(C(=O)O)N(Cc1ccc([N+](=O)[O-])cc1)S(=O)(=O)c1ccc(Br)cc1` (configuration not stated) [2-[(4-Bromo-benzenesulfonyl)-(4-nitro-benzyl)-amino]-propionic acid], with 10 µM.
In turn, `CC(C(=O)O)N(Cc1ccc([N+](=O)[O-])cc1)S(=O)(=O)c1ccc(F)cc1` (configuration not stated) [2-[(4-Fluoro-benzenesulfonyl)-(4-nitro-benzyl)-amino]-propionic acid] gave a Ki of 10 µM.
`CC(C(=O)O)N(Cc1ccc([N+](=O)[O-])cc1)S(=O)(=O)c1ccc(Cl)cc1` (configuration not stated) [2-[(4-Chloro-benzenesulfonyl)-(4-nitro-benzyl)-amino]-propionic acid]: the Ki was found to be 9 µM. The Ki values of the last two compounds are within 1.5-fold of each other.
Then `CC(C(=O)O)N(Cc1ccc([N+](=O)[O-])cc1)C(=O)NS(=O)(=O)c1ccc(Cl)cc1` (configuration not stated) [2-[({[(4-chlorophenyl)sulfonyl]amino}carbonyl)(4-nitrobenzyl)amino]propanoic acid], with 2.4 µM; and `Cc1cc(C)c(S(=O)(=O)N(Cc2ccc([N+](=O)[O-])cc2)C(C)C(=O)NO)c(C)c1` (configuration not stated) [N-Hydroxy-2-[(4-nitro-benzyl)-(2,4,6-trimethyl-benzenesulfonyl)-amino]-propionamide], with 17 µM; and `CC(C(=O)O)N(Cc1ccc([N+](=O)[O-])cc1)S(=O)(=O)c1c(F)c(F)c(F)c(F)c1F` (configuration not stated) [2-[(4-Nitro-benzyl)-pentafluorobenzenesulfonyl-amino]-propionic acid], with 0.4 µM.
Then `CC(C(=O)NO)N(Cc1ccc([N+](=O)[O-])cc1)S(=O)(=O)Cc1ccccc1` (configuration not stated) [N-Hydroxy-2-[(4-nitro-benzyl)-phenylmethanesulfonyl-amino]-propionamide], with 50 µM; and `Cc1ccc(S(=O)(=O)NC(=O)N(Cc2ccc([N+](=O)[O-])cc2)C(C)C(=O)O)cc1` (configuration not stated) [2-[({[(4-methylphenyl)sulfonyl]amino}carbonyl)(4-nitrobenzyl)amino]propanoic acid], with 2.5 µM; and `CC(C(=O)O)N(Cc1ccc([N+](=O)[O-])cc1)S(=O)(=O)c1cccc2cccnc12` (configuration not stated) [2-[(4-Nitro-benzyl)-(quinoline-8-sulfonyl)-amino]-propionic acid], with 1.2 µM.
Then `CC(C(=O)O)N(Cc1ccc([N+](=O)[O-])cc1)C(=O)Nc1cccc2ccccc12` (configuration not stated) [2-[3-Naphthalen-1-yl-1-(4-nitro-benzyl)-ureido]-propionic acid], with 4.6 µM.
In the case of `CC(=O)c1ccc(S(=O)(=O)N(Cc2ccc([N+](=O)[O-])cc2)C(C)C(=O)NO)cc1` (configuration not stated) [2-[(4-Acetyl-benzenesulfonyl)-(4-nitro-benzyl)-amino]-N-hydroxy-propionamide], the affinity, expressed as Ki, was 9 µM. Against the preceding compound, the Ki is about 2-fold higher.
`CC(C(=O)NO)N(Cc1ccc([N+](=O)[O-])cc1)S(=O)(=O)c1c(F)c(F)c(F)c(F)c1F` (configuration not stated) [N-Hydroxy-2-[(4-nitro-benzyl)-pentafluorobenzenesulfonyl-amino]-propionamide] yielded a Ki of 5 µM. This Ki lies about 1.8-fold lower than the previous one.
In turn, `CC(=O)c1ccc(S(=O)(=O)N(Cc2ccc([N+](=O)[O-])cc2)C(C)C(=O)O)cc1` (configuration not stated) [2-[(4-Acetyl-benzenesulfonyl)-(4-nitro-benzyl)-amino]-propionic acid] came in with an inhibitory constant (Ki) of 2.1 µM.
Turning to `CC(C(=O)O)N(Cc1ccc([N+](=O)[O-])cc1)S(=O)(=O)c1cccc2c(N(C)C)cccc12` (configuration not stated) [2-[(5-Dimethylamino-naphthalene-1-sulfonyl)-(4-nitro-benzyl)-amino]-propionic acid], the inhibitory constant (Ki) came out at 1.1 µM. Against the preceding compound, the Ki is about 1.9-fold lower.
`CC(C(=O)O)N(Cc1ccc([N+](=O)[O-])cc1)S(=O)(=O)N(C)C` (configuration not stated) [2-[[(dimethylamino)sulfonyl](4-nitrobenzyl)amino]propanoic acid]: the Ki was 36 µM. This Ki lies about 33-fold higher than the previous one.
`CC(C(=O)NO)N(Cc1ccc([N+](=O)[O-])cc1)S(=O)(=O)c1cccc(C(=O)O)c1` (configuration not stated) [3-[(1-Hydroxycarbamoyl-ethyl)-(4-nitro-benzyl)-sulfamoyl]-benzoic acid] registered an inhibitory constant (Ki) of 9 µM.
Then `CC(C(=O)NO)N(Cc1ccc([N+](=O)[O-])cc1)S(=O)(=O)c1ccc(I)cc1` (configuration not stated) [N-Hydroxy-2-[(4-iodo-benzenesulfonyl)-(4-nitro-benzyl)-amino]-propionamide], with 37 µM; and `CC(C(=O)NO)N(Cc1ccc([N+](=O)[O-])cc1)S(=O)(=O)c1ccccc1[N+](=O)[O-]` (configuration not stated) [N-Hydroxy-2-[(2-nitro-benzenesulfonyl)-(4-nitro-benzyl)-amino]-propionamide], with 13 µM.
For the compound `CC(C(=O)NO)N(Cc1ccc([N+](=O)[O-])cc1)C(=O)Nc1cccc2ccccc12` (configuration not stated) [N-Hydroxy-2-[3-naphthalen-1-yl-1-(4-nitro-benzyl)-ureido]-propionamide], the inhibitory constant (Ki) was found to be 10 µM.
Then `CC(C(=O)NO)N(Cc1ccc([N+](=O)[O-])cc1)C(=O)Nc1ccc(Cl)cc1` (configuration not stated) [2-[3-(4-Chloro-phenyl)-1-(4-nitro-benzyl)-ureido]-N-hydroxy-propionamide], with 18 µM; and `CC(C(=O)NO)N(Cc1ccc([N+](=O)[O-])cc1)C(=O)Nc1cccc(Cl)c1` (configuration not stated) [2-[3-(3-Chloro-phenyl)-1-(4-nitro-benzyl)-ureido]-N-hydroxy-propionamide], with 14 µM.

For the origin of these results see BindingDB's records for doi:10.1016/s0960-894x(00)00026-3 (Universit&#224, 2000).
